Assay results reported in EP0091090A2, “Bipyridine substituted imidazolidene copper complex and its use in food-producing animals, and bipyridine, 2,2'-(2-imidazolidinylidene) di-copper complex and use in animals” (INTERNATIONAL MINERALS & CHEMICAL CORPORATION, priority 1982, dated 1983).

Tested on: rumen fluid batch culture
Assay: Rumen fluid batch culture test: volatile fatty acid, gas (CH4 + H2), protein and amino acid accumulation (Example 2)
Format: cell-based, steers
Parameters: HFo (formate) / HAc (acetate) / HPr (propionate) / HiBu (isobutyrate) / HBu (butyrate) / HiVal (isovalerate) / Total / Caloric Value of H2 / Caloric Value of HFo / Caloric Value of HAc / Caloric Value of HPr / Caloric Value of HiBu / Caloric Value of HBu / Caloric Value of HiVal / Caloric Value of CH3: unit not given here
Settings: for Caloric Value of CH3 / Caloric Value of H2 / Caloric Value of HAc / Caloric Value of HBu / Caloric Value of HFo / Caloric Value of HPr / Caloric Value of HiBu / Caloric Value of HiVal / Caloric Value, Total (VFA's) / Total Cal in VFA & Gas: produced on Day 10; for CH4 produced on Day 10 / H2 produced on Day 10 / HAc (acetate) produced on Day 10 / HBu (butyrate) produced on Day 10 / HFo (formate) produced on Day 10 / HPr (propionate) produced on Day 10 / HiBu (isobutyrate) produced on Day 10 / HiVal (isovalerate) produced on Day 10 / Total VFA's produced on Day 10: total produced on Day 10
Procedure: The above Formula IV composition was tested to determine its effectiveness as a feed additive for ruminants. The initial tests were in rumen fluid batch culture systems to determine the effect of the compound on volatile fatty acid/methane ratios (VFA/CH4). […] Test Procedure: A 50/50 mixture of ground corn and ground alfalfa was used as the substrate for the subject rumen fluid batch culture test. The compound (Formula IV ) was present in the rumen fluid in three separate test samples at 8.33, 25 and 75 ppm, respectively. On day 1, rumen fluid was obtained from mature fistulated steers on 50/50 concentrate/roughage diets. The rumen fluid (RF) was strained through three layers of gauze cloth and equilibrated with C02 gas. Wheaton serum vials (125 ml) were prepared ahead with 20 ml continuous batch buffer and 100 mg 50/50 ground corn/ground alfalfa. Controls and compounds (dissolved in acetone) were set up according to desired levels. The vials were kept under C02 gas until 20 ml of the strained RF was added. The vials were sealed and incubated at 39°C for 24 hours in a hot water bath. On successive days, gas samples (0.1 ml) were drawn for gas chromatography analysis before transferring 20 ml of the batch culture to another vial containing 20 ml of buffer, 100 mg substrate, and the corresponding compound. The remaining 20 ml was inoculated with 2 ml 6N HC1 and centrifuged at 15,000 rpm for 15 minutes. Ether extracts were prepared for volatile fatty acid (VFA) analysis. Some minor adjustments were made in the termperatures on the Hewlett-Packard 5750 Gas-Liquid Chromatograph used for VFA analysis when the glass column used was changed from 1/4 inch diameter to 1/8 inch diameter. Injection Port = 220°C Column Oven = 170°C Flame Detector = 250°C Only 4 minutes was needed to record the sample instead of the previous 7 minutes.

[1] = all levels tested (8.33, 25 and 75 ppm), versus control

## 2,2'-(4,5-diphenyl-2H-imidazol-2-ylidene)bispyridine with CuCl2(1/1) [Formula IV Compound]
25 µg/ml, day 8
  CH4: 6 µ Moles
  H2: 17 µ Moles
  HAc (acetate): 20.38
  HBu (butyrate): 8.39
  HFo (formate): 2.20
  HPr (propionate): 14.71
  HiBu (isobutyrate): 2.73
  HiVal (isovalerate): 0
  Protein: 0 mg/mL
  Total: 48.40
25 µg/ml, day 9
  AA: 0.20 µ Moles/ml
  CH4: 28 µ Moles
  H2: 22 µ Moles
  HAc (acetate): 20.91
  HBu (butyrate): 5.82
  HFo (formate): 1.78
  HPr (propionate): 14.96
  HiBu (isobutyrate): 1.21
  HiVal (isovalerate): 0
  Protein: 0.03 mg/mL
  Total: 44.66
25 µg/ml, day 10
  AA: 0.30 µ Moles/ml
  CH4: 55 µ Moles
  H2: 8 µ Moles
  HAc (acetate): 21.76
  HBu (butyrate): 2.06
  HFo (formate): 1.00
  HPr (propionate): 13.79
  HiBu (isobutyrate): 0.01
  HiVal (isovalerate): 0
  Protein: 0 mg/mL
  Total: 38.62
25 µg/ml
  Caloric Value of CH3: 11.59
  Caloric Value of H2: 0.55
  Caloric Value of HAc: 94.73
  Caloric Value of HBu: 0
  Caloric Value of HFo: 0.28
  Caloric Value of HPr: 92.13
  Caloric Value of HiBu: 0
  Caloric Value of HiVal: 0
  Caloric Value, Total (VFA's): 187.14
  Total Cal in VFA & Gas: 199.28 cal
25 μg/ml
  CH4 produced on Day 10: 55
  H2 produced on Day 10: 8
  HAc (acetate) produced on Day 10: 452.4
  HBu (butyrate) produced on Day 10: 0
  HFo (formate) produced on Day 10: 4.40
  HPr (propionate) produced on Day 10: 252.4
  HiBu (isobutyrate) produced on Day 10: 0
  HiVal (isovalerate) produced on Day 10: 0
  Total VFA's produced on Day 10: 709.2
75 µg/ml, Day 10, initial feed gross energy 800 kcal
  Gross Cal Remaining in Feed: 350.70 cal
75 µg/ml, by day 10
  methane: inhibited completely
75 µg/ml, day 2
  AA: 0.18 µ Moles/ml
  CH4: 155 µ Moles
  H2: 0 µ Moles
  HAc (acetate): 33.48
  HBu (butyrate): 8.18
  HFo (formate): 0.95
  HPr (propionate): 11.10
  HiBu (isobutyrate): 0.95
  HiVal (isovalerate): 0.69
  Protein: 0 mg/mL
  Total: 55.34
75 µg/ml, day 3
  AA: 0.27 µ Moles/ml
  CH4: 71 µ Moles
  H2: 0 µ Moles
  HAc (acetate): 28.66
  HBu (butyrate): 15.10
  HFo (formate): 0.80
  HPr (propionate): 14.81
  HiBu (isobutyrate): 3.81
  HiVal (isovalerate): 0.44
  Protein: 0.04 mg/mL
  Total: 63.61
75 µg/ml, day 4
  CH4: 74 µ Moles
  H2: 0 µ Moles
  HAc (acetate): 27.47
  HBu (butyrate): 5.26
  HFo (formate): 1.29
  HPr (propionate): 18.71
  HiBu (isobutyrate): 0.95
  HiVal (isovalerate): 0.25
  Total: 53.92
75 µg/ml, day 5
  CH4: 74 µ Moles
  H2: 0 µ Moles
  HAc (acetate): 23.84
  HBu (butyrate): 4.59
  HFo (formate): 0.61
  HPr (propionate): 17.24
  HiBu (isobutyrate): 0.51
  HiVal (isovalerate): 0.26
  Total: 47.03
75 µg/ml, day 6
  AA: 0.20 µ Moles/ml
  CH4: 67 µ Moles
  H2: 0 µ Moles
  HAc (acetate): 25.01
  HBu (butyrate): 1.78
  HFo (formate): 0.51
  HPr (propionate): 16.43
  HiBu (isobutyrate): 0.39
  HiVal (isovalerate): 0.58
  Protein: 0.02 mg/mL
  Total: 44.68
75 µg/ml, day 7
  AA: 0.26 µ Moles/ml
  CH4: 3 µ Moles
  H2: 0 µ Moles
  HAc (acetate): 19.59
  HBu (butyrate): 9.9
  HFo (formate): 3.17
  HPr (propionate): 14.41
  HiBu (isobutyrate): 0.83
  HiVal (isovalerate): 0.10
  Protein: 0.01 mg/mL
  Total: 48.01
75 µg/ml, day 8
  AA: 0.31 µ Moles/ml
  CH4: 3 µ Moles
  H2: 0 µ Moles
  HAc (acetate): 17.86
  HBu (butyrate): 11.25
  HFo (formate): 3.52
  HPr (propionate): 14.08
  HiBu (isobutyrate): 2.61
  HiVal (isovalerate): 0
  Protein: 0 mg/mL
  Total: 49.31
75 µg/ml, day 9
  AA: 0.34 µ Moles/ml
  CH4: 0 µ Moles
  H2: 11 µ Moles
  HAc (acetate): 18.93
  HBu (butyrate): 9.21
  HFo (formate): 2.61
  HPr (propionate): 13.41
  HiBu (isobutyrate): 3.16
  HiVal (isovalerate): 0.26
  Protein: 0 mg/mL
  Total: 50.56
75 µg/ml, day 10
  AA: 0.47 µ Moles/ml
  CH4: 0 µ Moles
  H2: 14 µ Moles
  HAc (acetate): 18.71
  HBu (butyrate): 8.16
  HFo (formate): 2.52
  HPr (propionate): 14.57
  HiBu (isobutyrate): 3.74
  HiVal (isovalerate): 0.27
  Protein: 0 mg/mL
  Total: 47.97
75 µg/ml
  Caloric Value of CH3: 0
  Caloric Value of H2: 0.96
  Caloric Value of HAc: 77.39
  Caloric Value of HBu: 74.05
  Caloric Value of HFo: 3.06
  Caloric Value of HPr: 114.76
  Caloric Value of HiBu: 31.54
  Caloric Value of HiVal: 3.80
  Caloric Value, Total (VFA's): 304.60
  Total Cal in VFA & Gas: 305.56 cal
75 μg/ml
  CH4 produced on Day 10: 0
  H2 produced on Day 10: 14
  HAc (acetate) produced on Day 10: 369.6
  HBu (butyrate) produced on Day 10: 142.4
  HFo (formate) produced on Day 10: 48.8
  HPr (propionate) produced on Day 10: 314.4
  HiBu (isobutyrate) produced on Day 10: 86.4
  HiVal (isovalerate) produced on Day 10: 5.6
  Total VFA's produced on Day 10: 994.2
8.33 and 25 µg/ml
  Total energy in the end products: less than the control
8.33 and 75 µg/ml (not 25 µg/ml), versus control
  butyrate produced: more butyrate was produced
8.33 ppm
  methane: decreased slightly
25 and 75 ppm, first 6 days
  hydrogen production: no hydrogen production
  methane: slight decreases
25 and 75 ppm, seventh day
  hydrogen produced: some hydrogen produced
  methane: dropped drastically
75 ppm dosage level, Table 3
  increasing the number of calories available from the animals' feed: most effective amount
All dosage levels, Table 2
  shift in volatile fatty acids produced: desired shift in volatile fatty acids produced away from acetate towards propionate
[1]
  Acetate: decreased
  propionate: increased
Tests of Examples 2 and 3
  activity in rumen fluid batch culture tests: activity comparable to monensin
